Measured values: the CheMixHub viscosity set

Assay: xn = mol fraction of the nth substance listed

ClC(Cl)=C(Cl)Cl + COCCO
viscosity [mPa·s], 101.33 kPa
Conditions	x1 = 0.1062	x1 = 0.2046	x1 = 0.3091	x1 = 0.4453	x1 = 0.5214	x1 = 0.6184	x1 = 0.7146	x1 = 0.8062	x1 = 0.9015
303.15 K	1.365	1.273	1.178	1.066	1.009	0.943	0.89	0.846	0.808
313.15 K	1.111	1.049	0.985	0.907	0.866	0.819	0.778	0.747	0.727

ClC(Cl)=C(Cl)Cl + CCCCCCCO
303.15 K, 101 kPa
Conditions	viscosity [mPa·s]
x2 = 0.132	1.08
x2 = 0.2375	1.267
x2 = 0.3539	1.511
x2 = 0.4634	1.807
x2 = 0.5262	2.016
x2 = 0.5927	2.259
x2 = 0.6534	2.548
x2 = 0.7637	3.149
x2 = 0.8512	3.725
x2 = 0.9246	4.255

O=[N+]([O-])c1ccccc1 + CCCCCCC
101.3 kPa
Conditions	viscosity [mPa·s]
293.15 K, x1 = 0.149	0.482
293.15 K, x1 = 0.2214	0.532
293.15 K, x1 = 0.2746	0.58
293.15 K, x1 = 0.3291	0.631
293.15 K, x1 = 0.4214	0.759
293.15 K, x1 = 0.4477	0.805
293.15 K, x1 = 0.4729	0.845
293.15 K, x1 = 0.4886	0.862
293.15 K, x1 = 0.5628	0.937
293.15 K, x1 = 0.6392	1.016
293.15 K, x1 = 0.7954	1.313
293.15 K, x1 = 0.8751	1.517
293.16 K, x1 = 0.383	0.845
293.57 K, x1 = 0.383	0.831
294.17 K, x1 = 0.383	0.812
295.09 K, x1 = 0.383	0.794
295.15 K, x1 = 0.149	0.471
295.15 K, x1 = 0.2214	0.517
295.15 K, x1 = 0.2746	0.562
295.15 K, x1 = 0.3291	0.611
295.15 K, x1 = 0.4214	0.72
295.15 K, x1 = 0.4477	0.759
295.15 K, x1 = 0.4729	0.79
295.15 K, x1 = 0.4886	0.808
295.15 K, x1 = 0.5628	0.896
295.15 K, x1 = 0.6392	0.984
295.15 K, x1 = 0.7954	1.274
295.15 K, x1 = 0.8751	1.475
296.42 K, x1 = 0.383	0.768
298.66 K, x1 = 0.383	0.736
299.15 K, x1 = 0.149	0.451
299.15 K, x1 = 0.2214	0.498
299.15 K, x1 = 0.2746	0.539
299.15 K, x1 = 0.3291	0.579
299.15 K, x1 = 0.4214	0.67
299.15 K, x1 = 0.4477	0.702
299.15 K, x1 = 0.4729	0.73
299.15 K, x1 = 0.4886	0.746
299.15 K, x1 = 0.5628	0.836
299.15 K, x1 = 0.6392	0.926
299.15 K, x1 = 0.7954	1.201
299.15 K, x1 = 0.8751	1.385
305.15 K, x1 = 0.149	0.423
305.15 K, x1 = 0.2214	0.463
305.15 K, x1 = 0.2746	0.503
305.15 K, x1 = 0.3291	0.536
305.15 K, x1 = 0.4214	0.615
305.15 K, x1 = 0.4477	0.643
305.15 K, x1 = 0.4729	0.678
305.15 K, x1 = 0.4886	0.681
305.15 K, x1 = 0.5628	0.764
305.15 K, x1 = 0.6392	0.85
305.15 K, x1 = 0.7954	1.104
305.15 K, x1 = 0.8751	1.26
313.15 K, x1 = 0.149	0.391
313.15 K, x1 = 0.2214	0.425
313.15 K, x1 = 0.2746	0.459
313.15 K, x1 = 0.3291	0.491
313.15 K, x1 = 0.4214	0.558
313.15 K, x1 = 0.4477	0.58
313.15 K, x1 = 0.4729	0.602
313.15 K, x1 = 0.4886	0.613
313.15 K, x1 = 0.5628	0.689
313.15 K, x1 = 0.6392	0.77
313.15 K, x1 = 0.7954	0.984
313.15 K, x1 = 0.8751	1.124

CCCCCCCCCCCCCC + CCCCCCCCCCO
100 kPa, x1 = 0.3338
Conditions	viscosity [mPa·s]
298.2 K	5.36
308.2 K	3.89
318.2 K	2.92

CC12CC3CC(C)(C1)CC(C)(C3)C2 + OCC1CCCCC1
Conditions	viscosity [mPa·s]
303.15 K, 100 kPa, x2 = 0.801	10.65

CCCCCCCC + CC(C)O
viscosity [mPa·s]
Conditions	293.15 K	298.15 K	303.15 K	308.15 K
101 kPa, x2 = 0.0569	–	0.515	–	0.446
101 kPa, x2 = 0.1093	–	0.518	–	0.45
101 kPa, x2 = 0.1441	–	0.524	–	0.451
101 kPa, x2 = 0.2343	–	0.542	–	0.466
101 kPa, x2 = 0.3228	–	0.568	–	0.486
101 kPa, x2 = 0.3517	–	0.579	–	0.497
101 kPa, x2 = 0.4196	–	0.611	–	0.523
101 kPa, x2 = 0.5016	–	0.665	–	0.561
101 kPa, x2 = 0.5603	–	0.717	–	0.601
101 kPa, x2 = 0.6122	–	0.773	–	0.643
101 kPa, x2 = 0.7012	–	0.9	–	0.732
101 kPa, x2 = 0.7937	–	1.088	–	0.877
101 kPa, x2 = 0.9122	–	1.496	–	1.177
101 kPa, x2 = 0.9475	–	1.68	–	1.315
101.32 kPa, x2 = 0.0518	0.539	0.507	0.476	–
101.32 kPa, x2 = 0.0896	0.542	0.51	0.479	–
101.32 kPa, x2 = 0.212	0.562	0.526	0.494	–
101.32 kPa, x2 = 0.282	0.58	0.542	0.507	–
101.32 kPa, x2 = 0.4103	0.644	0.596	0.552	–
101.32 kPa, x2 = 0.6027	0.83	0.752	0.685	–
101.32 kPa, x2 = 0.6988	0.985	0.883	0.795	–
101.32 kPa, x2 = 0.7988	1.225	1.088	0.967	–
101.32 kPa, x2 = 0.9007	1.624	1.429	1.25	–
101.32 kPa, x2 = 0.9496	1.961	1.69	1.482	–

O=[N+]([O-])c1ccccc1 + C1COCCO1
303.15 K, 101 kPa
Conditions	viscosity [mPa·s]
x1 = 0.0852	1.058
x1 = 0.1732	1.058
x1 = 0.265	1.087
x1 = 0.3592	1.107
x1 = 0.4563	1.148
x1 = 0.5574	1.212
x1 = 0.6625	1.274
x1 = 0.7711	1.369
x1 = 0.8829	1.47

ClC(Cl)=C(Cl)Cl + Cc1ccc(C)cc1
303.15 K, 101 kPa
Conditions	viscosity [mPa·s]
x1 = 0.106	0.586
x1 = 0.1121	0.588
x1 = 0.212	0.607
x1 = 0.6339	0.704
x1 = 0.6982	0.719
x1 = 0.7773	0.738
x1 = 0.8517	0.757
